This is an account of results in patent publication US4650900A, “Aminoalkyl substituted urea derivatives and method of treatment” (H. Lundbeck A/S, priority 1985, dated 1987).

Common to all, as to format: in vivo
In data set [1] the test system is P 388 lymphocytic leukaemia. Description: Antitumor test in mice, P 388 lymphocytic leukaemia model (ILS %). From the text: (§1) The compound N-(4-dimethylamino-2,2-diphenyl-3-methyl-1-butyl)-urea, (in the following called Lu 9-110), has been tested in mice given several daily/weekly injections against the following experimental model tumors:
P 388 lymphocytic leukaemia

In data set [2] the test system is Ehrlich Ascites tumor (EAT). As to the kind of experiment: Antitumor test in mice, Ehrlich Ascites tumor (EAT) model (ILS %). The following applies: i.p. suspension in methylcellulose, q 8 hrs × 6, 150 mg/kg.
From the text: as §1
Ehrlich Ascites tumor (EAT)

Data set [3] has as its system L 1210 lymphoid leukaemia. Description: Antitumor test in mice, L 1210 lymphoid leukaemia model (ILS %). Conditions: L 1210, i.p. suspension in methylcellulose, q 8 hrs × 6, 150 mg/kg.
From the text: as §1
L 1210 lymphoid leukaemia

Data set [4] in a line: Toxicity of Lu 9-110 (LD10, LD50). The following applies: for LD50: mouse, in vivo, ip.
Data set [5] in a line: Preliminary toxicity experiments over 1 and 4 weeks (myelosuppression). The following applies: repeated administration, mice.
[6] abbreviates: i.p. solution, accumulated dose.
[7] abbreviates: i.p. suspension, accumulated dose (independent of schedule).

Broadly, the LD50 is the dose at which mortality reaches 50%. With `CC(CN(C)C)C(CNC(N)=O)(c1ccccc1)c1ccccc1` (stereo not shown) [Lu 9-110, N-(4-Dimethylamino-2,2-diphenyl-3-methyl-1-butyl)-urea], the ILS % in data set [1] (P 388, aqueous solution, q 3 hrs × 8, 50 mg/kg) was determined as 67%; in data set [1] (P 388, aqueous solution, q 8 hrs × 3, 100 mg/kg), 33%; in data set [1] (P 388, aqueous solution, ×1, 100 mg/kg) it was 9%; in data set [1] (P 388, i.p. suspension in methylcellulose, q 8 hrs × 6, 150 mg/kg), 92%; in data set [2] it was 120%; in data set [3], 33%. The LD10 in data set [4] (setting [6]) was 300 to 500 mg/kg; in data set [4] (i.p. solution, single dose) it was ~ 100 mg/kg; in data set [4] (setting [7]), ~ 1100 mg/kg. The 50% lethal dose (LD50) in data set [4] (setting [6]) is 400 to 600 mg/kg; in data set [4] (i.p. solution, single dose) it was around 150 mg/kg; in data set [4] (setting [7]) it was around 1400 mg/kg. Also, the myelosuppression result in data set [5] was “only very slight myelosuppression”.
